# Source: article PMC3409642 (Pharmaceutical research, 2012)
# “And” between values parts separate entries of the source, which are not always exact repeats. Equal entries are not always repeated. Where two headings read alike, the source gives them in different places.
# Columns and labels:
# [1] = molecular target: T1, UGT1A9 (Homo sapiens, UniProt O60656); conditions: for Log (CLint) (Actual): recombinant enzyme
# T1 sequence (O60656 26-530): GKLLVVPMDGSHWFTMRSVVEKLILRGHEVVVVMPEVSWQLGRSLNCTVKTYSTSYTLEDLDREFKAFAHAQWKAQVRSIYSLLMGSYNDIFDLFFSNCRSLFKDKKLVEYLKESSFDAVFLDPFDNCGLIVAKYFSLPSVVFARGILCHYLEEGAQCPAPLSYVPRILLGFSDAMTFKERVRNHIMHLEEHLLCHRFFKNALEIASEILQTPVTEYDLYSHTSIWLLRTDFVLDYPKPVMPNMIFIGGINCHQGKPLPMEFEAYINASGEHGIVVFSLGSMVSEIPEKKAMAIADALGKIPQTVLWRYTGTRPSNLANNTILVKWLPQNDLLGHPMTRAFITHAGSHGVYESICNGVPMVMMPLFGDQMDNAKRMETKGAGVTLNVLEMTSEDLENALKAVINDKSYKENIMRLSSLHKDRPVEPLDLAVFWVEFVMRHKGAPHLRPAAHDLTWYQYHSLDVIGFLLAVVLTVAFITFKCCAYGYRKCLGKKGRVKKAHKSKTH
# [2] = molecular target: T1, UGT1A9; assay: Kinetic profiling of glucuronidation by expressed human UGT1A9; conditions: for Log (CLint) (Actual): log of experimental CLint (μl/mg/min)
smiles,measurement,setting,value
"COc1cc(-c2oc3cc(O)cc(O)c3c(=O)c2O)ccc1O [compound 87, Isorhamnetin]",Log (CLint) (Actual),"[1]; human, pH 7.4",4.59
"COc1ccc(-c2coc3cc(O)cc(O)c3c2=O)cc1 [compound 100, Biochanin A]",CLint (Vmax/Km),[1],335 µL/min/mg
same,Log (CLint) (Actual),[1]; human,2.53
same,Km,[1]; pH 7.4,1.13 µM
"C[C@]12CC[C@@H]3c4ccc(O)cc4CC[C@H]3[C@@H]1CC[C@@H]2O [estradiol, reference compound]",glucuronide metabolite formation on incubation with UGT1A9 (non-substrate),[1],no metabolite can be detected
"Cc1ccc(O)cc1 [compound 119, 4-Methylphenol]",Log (CLint) (Actual),"[1]; human, pH 7.4",1.39
"CCOC(=O)c1ccc(O)cc1 [compound 130, Ethyl-4-hydroxybenzoate]",Log (CLint) (Actual),"[1]; human, pH 7.4",1.61
"O=c1c(O)c(-c2ccc(O)cc2)oc2ccccc12 [compound 64, 3,4′-Dihydroxyfavone]",CLint (Vmax/Km),[1],14000 µL/min/mg
same,Log (CLint) (Actual),[1]; human,4.14
same,Km,[1]; pH 7.4,0.13 µM
"C=CCc1ccc(O)c(OC)c1 [compound 131, Eugenol]",Log (CLint) (Actual),"[1]; human, pH 7.4",1.60
"O=c1c(-c2ccc(O)cc2)coc2cc(O)ccc12 [compound 101, Daidzein]",CLint (Vmax/Km),"[1]; human, pH 7.4",77 µL/min/mg
same,Log (CLint) (Actual),"[1]; human, pH 7.4",1.89
"CC(C)(c1ccc(O)cc1)c1ccc(O)cc1 [compound 135, Bisphenol A]",Log (CLint) (Actual),"[1]; human, pH 7.4",1.68
"O=c1cc(-c2ccccc2)oc2cc(O)cc(O)c12 [compound 52, Chrysin]",Log (CLint) (Actual),"[1]; human, pH 7.4",3.96
"COC(=O)c1ccc(O)cc1 [compound 132, Methyl-4-hydroxybenzoate]",Log (CLint) (Actual),"[1]; human, pH 7.4",1.73
"Cc1cc(O)cc2oc(-c3ccccc3)cc(=O)c12 [compound 48, 7-Hydoxy-5-methylflavone]",CLint (Vmax/Km),[1],5712 µL/min/mg
same,Log (CLint) (Actual),[1]; human,3.76
same,Km,[1]; pH 7.4,0.94 µM
"COc1c(O)cc2oc(-c3ccccc3)cc(=O)c2c1O [compound 57, OroxylinA]",Log (CLint) (Actual),"[1]; human, pH 7.4",2.94
"COc1c(C)c2c(c(O)c1C/C=C(\C)CCC(=O)O)C(=O)OC2 [compound 142, Mycophenolic Acid, reference compound]",Log (CLint) (Actual),[2],1.96
"O=c1c(O)c(-c2ccc(O)c(O)c2)oc2cc(O)cc(O)c12 [91.a, Quercetin]",Log (CLint) (Actual),[2],3.97
same,Log (CLint) (Actual),[2]; listed as 91.b,3.32
same,Log (CLint) (Actual),[2]; listed as 91.c,3.65
"O=C1c2ccc(O)cc2OCC1c1ccc(O)cc1 (centres unmarked) [compound 102, Dihydrodaidzein]",CLint (Vmax/Km),[1],8.1 µL/min/mg
same,Log (CLint) (Actual),[1]; human,0.91
same,Km,[1]; pH 7.4,77.7 µM
"O=C(O)/C=C/c1ccc(O)c(O)c1 [97.a, Caffeic Acid]",Log (CLint) (Actual),[2],1.04
same,Log (CLint) (Actual),[2]; listed as 97.b,0.30
"COc1c(O)cc(O)c2c(=O)cc(-c3ccccc3)oc12 [compound 58, Wogonin]",Log (CLint) (Actual),[2],3.60
"Nc1ccc(C(=O)O)c(O)c1 [aminosalicylic acid, reference compound]",glucuronide metabolite formation on incubation with UGT1A9 (non-substrate),[2]; incubating compound with UGT1A9,no metabolite can be detected
"O=c1c(O)c(-c2ccccc2)oc2ccccc12 [compound 81, 3-Hydroxyflavone]",Log (CLint) (Actual),[2],3.84
"COc1ccccc1-c1cc(=O)c2ccc(O)cc2o1 [compound 44, 7-Hydroxy-2′-methoxyflavone]",Log (CLint) (Actual),[2],3.00
"O=c1cc(-c2ccccc2O)oc2ccccc12 [compound 28, 2′-Hydroxyflavone]",Log (CLint) (Actual),[2],2.27
"O=c1c(O)c(-c2ccc(O)c(O)c2)oc2cc(O)ccc12 [84.a, Fisetin]",Log (CLint) (Actual),[2],3.38
same,Log (CLint) (Actual),[2]; listed as 84.b,3.55
same,Log (CLint) (Actual),[2]; listed as 84.c,3.49
"CCc1ccc(O)cc1 [compound 114, 4-Ethylphenol]",Log (CLint) (Actual),[2],1.87
"CCN(CC)C(=O)/C(C#N)=C/c1cc(O)c(O)c([N+](=O)[O-])c1 [compound 140, Entacapone, reference compound]",Log (CLint) (Actual),[2],4.01
"COc1cccc(-c2oc3ccccc3c(=O)c2O)c1OC [compound 71, 3-Hydroxy-2′,3′-dimethoxyflavone]",Log (CLint) (Actual),[2],3.92
"O=c1cc(-c2ccccc2)oc2cccc(O)c12 [compound 34, 5-Hydroxyflavone]",Log (CLint) (Actual),"[1]; human, pH 7.4",2.09
"Oc1ccc(C2CCCC2)cc1 [compound 112, 4-Cyclopentylphenol]",Log (CLint) (Actual),[2],1.78
"O=c1c(O)c(-c2ccccc2)oc2ccc(O)cc12 [compound 65, 3,6-Dihydroxyfavone]",CLint (Vmax/Km),[1],21000 µL/min/mg
same,Log (CLint) (Actual),[1]; human,4.32
same,Km,[1]; pH 7.4,0.62 µM
"O=c1cc(-c2ccccc2)oc2cc(O)c(O)cc12 [compound 37, 6,7-Dihydroxyflavone]",Log (CLint) (Actual),[2],2.96
"COc1cc2c(=O)c(-c3ccc(O)cc3)coc2cc1O [compound 106, Glycitein]",Log (CLint) (Actual),[2],2.44
"COc1cc(-c2oc3cc(O)ccc3c(=O)c2O)cc(OC)c1OC [67.a, 3,7-Dihydroxy-3′,4′,5′-trimethoxyflavone]",Log (CLint) (Actual),[2],3.66
"O=c1c(O)c(-c2ccccc2O)oc2ccccc12 [compound 59, 3,2′-Dihydroxyflavone]",Log (CLint) (Actual),[2],1.89
"O=c1cc(-c2cccc(O)c2)oc2cc(O)c(O)cc12 [compound 36, 6,7,3′-Trihydroxflavone]",CLint (Vmax/Km),[1],775 µL/min/mg
same,Log (CLint) (Actual),[1]; human,2.89
same,Km,[1]; pH 7.4,3.01 µM
"COc1cc2oc(=O)cc(-c3ccccc3)c2cc1O [compound 12, 6-Hydroxy-7-methoxyl-4-phenylcoumarin]",Log (CLint) (Actual),[2],1.07
"COc1c(O)cc2oc(-c3ccc(O)c(O)c3)cc(=O)c2c1O [compound 39, 6-Methoxyluteolin]",Log (CLint) (Actual),[2],3.22
"O=C(c1ccccc1)c1ccc(O)cc1 [compound 122, 4-Hydroxybenzophenone]",Log (CLint) (Actual),[2],1.83
"COc1ccccc1-c1oc2ccccc2c(=O)c1O [compound 72, 3-Hydroxy-2′-methoxyflavone]",Log (CLint) (Actual),[2],4.25
"Oc1ccc(N=Nc2ccccc2)cc1 [compound 124, 4-Phenylazophenol]",CLint (Vmax/Km),[1],14 µL/min/mg
same,Log (CLint) (Actual),[1]; human,1.15
same,Km,[1]; pH 7.4,82.5 µM
"CC/C(=C(\c1ccc(O)cc1)c1ccc(OCCNC)cc1)c1ccccc1 [compound 19, Endoxifen]",Log (CLint) (Actual),[2],0.82
"Oc1cc(O)c2c(c1)O[C@H](c1cc(O)c(O)c(O)c1)[C@H](O)C2 [compound 2, (−)-Epigallocatechin]",Log (CLint) (Actual),[2],1.58
"CN(C)CCc1c[nH]c2cccc(O)c12 [compound 143, Psilocin]",Log (CLint) (Actual),"[1]; human, pH 7.4",0.90
"Oc1ccc2c(c1)OC[C@H]1c3cc4c(cc3O[C@@H]21)OCO4 [compound 107, Maackiain]",Log (CLint) (Actual),[2],1.87
"CCCOC(=O)c1ccc(O)cc1 [compound 134, Propyl-4-hydroxybenzoate]",Log (CLint) (Actual),"[1]; human, pH 7.4",1.48
"COc1ccc(-c2coc3cc(O)ccc3c2=O)cc1 [compound 104, Formononetin]",Log (CLint) (Actual),[2],1.48
"O=c1cc(-c2ccc(O)c(O)c2)oc2ccc(O)cc12 [compound 35, 6,3′,4′-Trihydroxyflavone]",Log (CLint) (Actual),[2],3.54
"Cc1ccc2oc(-c3ccc4c(c3)OCO4)c(O)c(=O)c2c1 [compound 82, 3-Hydroxy-6-methyl-3′,4′-methylenedioxyflavone]",Log (CLint) (Actual),[2],4.96
"O=[N+]([O-])c1ccc(O)cc1 [compound 120, 4-Nitrophenol]",Log (CLint) (Actual),[2],1.56
"O=C(/C=C/c1ccccc1)c1ccccc1O [compound 5, 2′-Hydroxychalcone]",Log (CLint) (Actual),"[1]; human, pH 7.4",3.12
"COc1ccc(-c2oc3cc(O)cc(O)c3c(=O)c2OC)cc1O [compound 29, 3,4′-Dimethoxy-5,7,3′-trihydroxyflavone]",Log (CLint) (Actual),[2],3.66
"COc1ccc2c(=O)c(-c3ccccc3)coc2c1O [compound 99, 8-Hydroxy-7-methoxyisoflavone]",Log (CLint) (Actual),[2],3.57
"N#C/C(=C\c1ccc(O)c(O)c1)C(=O)NCc1ccccc1 [23.a, Tyrphostin B42]",Vmax,[2]; pH 7.4,3677 pmol/mg/min and 2008 pmol/mg/min
"COc1cc2c(=O)c(-c3ccccc3)coc2cc1O [compound 98, 7-Hydroxy-6-methoxyisoflavone]",Log (CLint) (Actual),[2],2.57
"Cc1cc(=O)oc2cc(O)ccc12 [compound 10, 4-Methylumbelliferone]",Log (CLint) (Actual),[2],2.48
"O=c1c(O)c(-c2ccc(O)c(O)c2)oc2ccccc12 [compound 63, 3,3′,4′-Trihydroxyflavone]",Log (CLint) (Actual),[2],4.34
"COc1ccc(-c2oc3cc(O)cc(O)c3c(=O)c2OC)cc1OCc1ccccc1 [compound 30, 3′-Benzyloxy-5,7-dihydroxy-3,4′-dimethoxyflavone]",Log (CLint) (Actual),[2],3.22
"O=c1c(O)c(-c2ccccc2O)oc2cc(O)cc(O)c12 [compound 83, Datiscetin]",Log (CLint) (Actual),[2],2.00
"COc1ccc(-c2cc(=O)c3ccc(O)cc3o2)cc1 [compound 47, 7-Hydroxy-4′-methoxyflavone]",Log (CLint) (Actual),[2],2.36
"O=c1c(O)c(-c2ccc(O)cc2O)oc2cc(O)cc(O)c12 [compound 89, Morin]",Log (CLint) (Actual),[2],1.77
"O=C(/C=C/c1ccccc1)c1ccc(O)cc1 [compound 6, 4′-Hydroxychalcone]",Log (CLint) (Actual),[2],2.29
